# Measured values published in the supplement of paper PMC10331698.
# ± gives the standard deviation of the averaged measurements.
# Key:
# Assay in all cases: level (log10 ratio to DMSO vehicle control); higher = higher biomarker level / cell amount than vehicle control
# Conditions in all cases: in DMSO
# Hexafluoroglutaric acid = compound: O=C(O)C(F)(F)C(F)(F)C(F)(F)C(=O)O [Hexafluoroglutaric acid]
# Experimental: (§1)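 BioMAP Diversity Plus panel of 12 human primary cell co-culture systems (3C, 4H, LPS, SAg, BT, BF4T, BE3C, CASM3C, HDF3CGF, KF3CT, MyoF, Mphg). Compounds were added 1 h before stimulation and left for 24 h (MyoF 48 h; BT 72 h for soluble read-outs or 6 d for IgG). Biomarkers were read by ELISA, cytotoxicity by SRB, PBMC viability and proliferation by Alamar Blue. Each well value was divided by the mean of 8 DMSO control wells on the same plate and log10 transformed; duplicate blinded samples were tested at 4 concentrations.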
# [1] = compound: C=CC(=O)OCCC(F)(F)C(F)(F)C(F)(F)C(F)(F)F [2-(Perfluorobutyl)ethyl acrylate]
# Experimental: as §1
# 1H,1H-Heptafluorobutanol = compound: OCC(F)(F)C(F)(F)C(F)(F)F [1H,1H-Heptafluorobutanol]
# Experimental: as §1
# [2] = compound: O=C(O)CCC(F)(F)C(F)(F)C(F)(F)C(F)(F)C(F)(F)F [2H,2H,3H,3H-Perfluorooctanoic acid]
# Experimental: as §1
# [3] = compound: O=C(O)C(F)(F)C(F)(F)C(F)(F)C(F)(F)C(F)(F)C(F)(F)C(F)(F)C(F)(F)Cl [9-Chloro-perfluorononanoic acid]
# Experimental: as §1
# [4] = compound: CC(C)(C)C(=O)CC(=O)C(F)(F)C(F)(F)C(F)(F)F [(Heptafluorobutanoyl)pivaloylmethane]
# Experimental: as §1
# Perfluorooctanamide = compound: NC(=O)C(F)(F)C(F)(F)C(F)(F)C(F)(F)C(F)(F)C(F)(F)C(F)(F)F [Perfluorooctanamide]
# Experimental: as §1
Test System,level (log10) (Hexafluoroglutaric acid; 6700 nM),level (log10) (Hexafluoroglutaric acid; 20000 nM),level (log10) (Hexafluoroglutaric acid; 60000 nM),level (log10) ([1]; 6700 nM),level (log10) ([1]; 20000 nM),level (log10) ([1]; 60000 nM),"level (log10) (1H,1H-Heptafluorobutanol; 6700 nM)","level (log10) (1H,1H-Heptafluorobutanol; 20000 nM)","level (log10) (1H,1H-Heptafluorobutanol; 60000 nM)",level (log10) ([2]; 6700 nM),level (log10) ([2]; 20000 nM),level (log10) ([2]; 60000 nM),level (log10) ([3]; 6700 nM),level (log10) ([3]; 20000 nM),level (log10) ([4]; 6700 nM),level (log10) ([4]; 20000 nM),level (log10) ([4]; 60000 nM),level (log10) (Perfluorooctanamide; 6700 nM),level (log10) (Perfluorooctanamide; 20000 nM),level (log10) (Perfluorooctanamide; 60000 nM)
BE3C:SRB,0.0035 ± 0.0035,-0.005,0.0125 ± 0.012,-0.0035 ± 0.005,-0.0055 ± 0.0021,-0.0015 ± 0.0021,-0.0115 ± 0.0078,-0.0045 ± 0.011,-0.0005 ± 0.0064,0.003 ± 0.0028,-0.0015 ± 0.005,0.012 ± 0.018,-0.0045 ± 0.0064,-0.0805 ± 0.005,-0.0035 ± 0.0035,-0.0035 ± 0.00071,-0.0075 ± 0.019,-0.005 ± 0.0057,-0.003 ± 0.0057,0.0005 ± 0.0035
MyoF:MMP-1,0 ± 0.0085,-0.0115 ± 0.012,-0.008 ± 0.014,0.0005 ± 0.0092,0.024 ± 0.017,0.0405 ± 0.012,-0.031 ± 0.0057,-0.019 ± 0.011,0.012 ± 0.081,-0.017 ± 0.041,-0.044 ± 0.0099,-0.007 ± 0.033,-0.028 ± 0.03,-0.0585 ± 0.0064,-0.036 ± 0.013,-0.0255 ± 0.025,0.025 ± 0.058,-0.0075 ± 0.011,-0.013 ± 0.04,-0.0045 ± 0.026
HDF3CGF:Collagen III,-0.0065 ± 0.015,-0.0275 ± 0.00071,-0.0125 ± 0.00071,-0.005 ± 0.0014,-0.0605 ± 0.0021,-0.127 ± 0.03,-0.0055 ± 0.076,-0.0285 ± 0.052,-0.0155 ± 0.044,-0.064 ± 0.055,-0.076 ± 0.033,-0.039 ± 0.061,-0.0835 ± 0.046,-0.235 ± 0.061,-0.008 ± 0.11,0.0535 ± 0.025,0.0555 ± 0.018,-0.018 ± 0.014,-0.02 ± 0.0014,-0.0085 ± 0.056
HDF3CGF:M-CSF,-0.0015 ± 0.013,-0.006 ± 0.033,-0.0285 ± 0.029,-0.0445 ± 0.0092,-0.154 ± 0.054,-0.259 ± 0.12,0.0045 ± 0.035,0.0335 ± 0.00071,0.004 ± 0.02,-0.044 ± 0.089,-0.067 ± 0.086,-0.051 ± 0.12,-0.058 ± 0.041,-0.089 ± 0.025,0.026 ± 0.014,0.03 ± 0.038,0 ± 0.028,0.001 ± 0.023,0.0055 ± 0.00071,0.027 ± 0.0014
3C:CD54/ICAM-1,-0.0125 ± 0.018,-0.0165 ± 0.019,-0.0175 ± 0.018,0.0055 ± 0.0021,-0.01 ± 0.0042,-0.01 ± 0.011,0.0095 ± 0.0064,0.003 ± 0.0085,0.0075 ± 0.0064,0.0005 ± 0.0064,-0.0055 ± 0.018,-0.0175 ± 0.022,-0.0075 ± 0.0092,-0.0085 ± 0.019,-0.0015 ± 0.019,-0.0095 ± 0.005,0.03 ± 0.011,-0.012 ± 0.011,-0.003 ± 0.013,0.0335 ± 0.012
HDF3CGF:SRB,-0.03 ± 0.083,-0.0095 ± 0.097,0.0245 ± 0.12,-0.0125 ± 0.057,-0.092 ± 0.073,-0.0805 ± 0.06,-0.047 ± 0.067,0.0415 ± 0.011,0.025 ± 0.033,-0.006 ± 0.034,0.0185 ± 0.04,0.077 ± 0.028,0.081 ± 0.016,0.065 ± 0.033,0.0015 ± 0.0021,0.0085 ± 0.013,0.0345 ± 0.032,0.01 ± 0.028,-0.0025 ± 0.033,0.0285 ± 0.019
